Active and inactive are the calls of the source. The calls are words filed in the database; no cut-off is given here.
Experiments:
[1] = Inhibition of N-terminal GST-tagged wildtype human P38alpha (4 to 152 residues) extracted from Escherichia coli/GST-tagged MK2 (unknown origin) assessed as reduction in HSP27 phosphorylation incubated for 2 hrs in presence of ATP and HSP27-FITC peptide by fluorescence polarization based IMAP assay
[2] = Selectivity ratio of IC50 for inhibition of N-terminal GST-tagged wildtype human P38alpha (4 to 152 residues) extracted from Escherichia coli/GST-tagged PRAK (unknown origin) to IC50 for inhibition of N-terminal GST-tagged wildtype human P38alpha (4 to 152 residues) extracted from Escherichia coli/GST-tagged MK2 (unknown origin)
[3] = Clearance in male Sprague-Dawley rat at 1 mg/kg, iv measured after 24 hrs by LC-MS/MS analysis; type: ADME, organism-based; conditions: in vivo
[4] = Volume of distribution at steady state in male Sprague-Dawley rat at 1 mg/kg, iv measured after 24 hrs by LC-MS/MS analysis; type: ADME, organism-based; conditions: in vivo, read-out: Vdss
[5] = AUClast in male Beagle dog at 1 mg/kg, iv measured after 24 hrs by LC-MS/MS analysis; type: ADME, organism-based, Canis lupus familiaris; conditions: in vivo
[6] = Clearance in male Beagle dog at 1 mg/kg, iv measured after 24 hrs by LC-MS/MS analysis; type: ADME, organism-based, Canis lupus familiaris; conditions: in vivo
[7] = MRT in male Beagle dog at 1 mg/kg, iv measured after 24 hrs by LC-MS/MS analysis; type: ADME, organism-based, Canis lupus familiaris; conditions: in vivo
[8] = Oral bioavailability in male Beagle dog at 2 mg/kg measured after 24 hrs by LC-MS/MS analysis; type: ADME, organism-based, Canis lupus familiaris; conditions: in vivo
[9] = tested on: PBMC; assay: Inhibition of LPS-induced TNF-alpha production in human PBMC cells at 0.01 to 10000 nM preincubated with compound for 1 hrs followed by LPS addition and measured after 4 hrs; type: functional, cell-based; conditions: dose 0.01-10000 nM, time 5.0 hrs
[10] = tested on: PBMC; assay: Inhibition of LPS-induced IL-8 production in human PBMC cells at 0.01 to 10000 nM preincubated with compound for 1 hrs followed by LPS addition and measured after 4 hrs; type: functional, cell-based; conditions: dose 0.01-10000 nM, time 5.0 hrs
[11] = target: Cytochrome P450 2D6 (Homo sapiens, UniProt P10635); assay: Inhibition of CYP2D6 in human liver microsomes using dextromethorphan as substrate in presence of NADP by LC-MS/MS analysis; type: ADME, Microsome
Sequence of Cytochrome P450 2D6 (P10635 whole entry): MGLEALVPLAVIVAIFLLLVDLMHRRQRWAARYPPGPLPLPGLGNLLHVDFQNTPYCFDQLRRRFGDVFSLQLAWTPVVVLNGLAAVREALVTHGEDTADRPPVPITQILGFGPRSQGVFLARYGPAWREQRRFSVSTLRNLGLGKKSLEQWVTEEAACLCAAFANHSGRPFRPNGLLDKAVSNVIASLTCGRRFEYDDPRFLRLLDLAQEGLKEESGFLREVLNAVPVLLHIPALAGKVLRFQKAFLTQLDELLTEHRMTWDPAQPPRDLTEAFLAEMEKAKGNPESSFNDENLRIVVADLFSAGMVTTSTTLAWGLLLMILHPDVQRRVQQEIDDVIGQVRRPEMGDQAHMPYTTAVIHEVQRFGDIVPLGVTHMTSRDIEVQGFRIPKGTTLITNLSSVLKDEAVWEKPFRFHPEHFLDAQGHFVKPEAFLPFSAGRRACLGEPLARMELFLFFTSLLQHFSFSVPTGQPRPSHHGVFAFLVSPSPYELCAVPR

[12] = target: Cytochrome P450 3A4 (Homo sapiens, UniProt P08684); assay: Inhibition of CYP3A4 in human liver microsomes using testosterone as substrate in presence of NADP by LC-MS/MS analysis; type: ADME, Microsome
Sequence of Cytochrome P450 3A4 (P08684 whole entry): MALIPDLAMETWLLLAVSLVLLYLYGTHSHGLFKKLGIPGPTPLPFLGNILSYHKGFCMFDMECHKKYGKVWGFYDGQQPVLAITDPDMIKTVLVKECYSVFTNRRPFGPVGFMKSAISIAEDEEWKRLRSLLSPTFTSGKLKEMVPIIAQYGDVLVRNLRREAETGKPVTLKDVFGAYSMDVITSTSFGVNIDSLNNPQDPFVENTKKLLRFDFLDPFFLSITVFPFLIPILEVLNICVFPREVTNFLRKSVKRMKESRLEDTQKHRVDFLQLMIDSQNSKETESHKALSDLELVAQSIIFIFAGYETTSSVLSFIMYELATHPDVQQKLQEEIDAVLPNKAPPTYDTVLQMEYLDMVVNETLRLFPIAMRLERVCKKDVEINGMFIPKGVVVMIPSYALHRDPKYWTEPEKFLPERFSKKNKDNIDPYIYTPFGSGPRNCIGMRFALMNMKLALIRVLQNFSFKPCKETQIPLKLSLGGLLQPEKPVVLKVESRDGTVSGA

[13] = Cmax in female Lewis rat at 3 mg/kg, po measured after 24 hrs by LC-MS/MS analysis; type: ADME, organism-based; conditions: in vivo
[14] = tested on: Rattus norvegicus; assay: Antiarthritic activity in Mycobacterium tuberculosis H37R-induced female Lewis rat model of arthritis assessed as reduction in joint swelling by measuring paw volume score at 1 mg/kg, po administered twice daily for 15 days starting from day 13 after adjuvant administration by water displacement method; type: functional, organism-based; conditions: time 15.0 day
[15] = tested on: Rattus norvegicus; assay: Antiarthritic activity in Mycobacterium tuberculosis H37R-induced female Lewis rat model of arthritis assessed as inhibition of IL-6 production at 0.3 to 1 mg/kg, po administered twice daily for 15 days starting from day 13 after adjuvant administration; type: functional, organism-based; conditions: dose 0.3-1 mg/kg, time 15.0 day

## Cc1cnc(-c2ccnc(C(C)(C)O)n2)c(F)c1-n1c(C)cc(O[C@@H](C)c2ncc(F)cc2F)c(C)c1=O
[1]
  IC50: 0.005 µM
[2]
  Ratio IC50: 1170
[3]
  clearance: 9.6 mL/min/kg
[4]
  Vd: 1.2 L/kg
[5]
  AUC(0-t) at 24 h: 3750 ng·h/mL
[6]
  clearance: 4.5 mL/min/kg
[7]
  MRT: 2.9 h
[8]
  bioavailability: 68%
[9]
  inhibition: Active
[10]
  inhibition: Active
[11]
  IC50: > 40 µM
[12]
  IC50: > 40 µM
[13]
  Cmax: 916 ng/mL
[14]
  Activity: Active; Significantly Superior Activity Observed Compared To 3 Mg/Kg Of Compound 1
[15]
  Activity: Active

— ChEMBL document CHEMBL6096702, “Discovery of a Novel p38α-MK2 Complex Inhibitor as a Potential Choice for Autoimmune Diseases” (J Med Chem, 2025)
